Key:
MEIS1 mRNA expression = MEIS1 mRNA expression assay (Quantigene Singleplex) in MOLM14; format: cell-based; details: Homo sapiens, MOLM-14, 48 h, MOLM14 cells, 48 hours with compound
Protocol: 2b) MEIS1 mRNA Expression Assay
MEIS1 mRNA expression upon treatment of compound was examined by Quantigene Singleplex assay (Thermo Fisher Scientific). This technology allows for direct quantification of mRNA targets using probes hybridizing to defined target sequences of interest and the signal is detected using a Multimode plate reader Envision (PerkinElmer). The MOLM14 cell line was used for this experiment. Cells were plated in 96-well plates at 3,750 cells/well in the presence of increasing concentrations of compounds. After incubation of 48 hours with compounds, cells were lysed in lysis buffer and incubated for 45 minutes at 55° C. Cell lysates were mixed with human MEIS1 specific capture probe or human RPL28 (Ribosomal Protein L28) specific probe as a normalization control, as well as blocking probes. Cell lysates were then transferred to the custom assay hybridization plate (Thermo Fisher Scientific) and incubated for 18 to 22 hours at 55° C. Subsequently, plates were washed to remove unbound materials followed by sequential addition of preamplifiers, amplifiers, and label probe. Signals (=gene counts) were measured with a Multimode plate reader Envision. IC50s were calculated by dose-response modelling using appropriate software. For all non-housekeeper genes response equal counts corrected for background and relative expression. For each sample, each test gene signal (background subtracted) was divided by the normalization gene signal (RPL28: background subtracted). Fold changes were calculated by dividing the normalized values for the treated samples by the normalized values for the DMSO treated sample. Fold changes of each target gene were used for the calculation of IC50s.

MOLM14 cells = assay: Proliferation assay (spheroid assay), MOLM14; format: cell-based; details: Homo sapiens, MOLM-14, 192 h, 8 days; read-out: spheroid assay_MOLM14 IC50
Protocol: (§1) The anti-proliferative effect of menin/MLL protein/protein interaction inhibitor test compounds was assessed in human leukemia cell lines. The cell line MOLM14 harbors a MLL translocation and expresses the MLL fusion protein MLL-AF9, respectively, as well as the wildtype protein from the second allele. OCI-AML3 cells that carry the NPM1c gene mutation were also tested. […] KO-52 was used as a control cell line containing two MLL (KMT2A) wildtype alleles in order to exclude compounds that display general cytotoxic effects.
(§2) MOLM14 cells were cultured in RPMI-1640 (Sigma Aldrich) supplemented with 10% heat-inactivated fetal bovine serum (HyClone), 2 mM L-glutamine (Sigma Aldrich) and 50 μg/ml gentamycin (Gibco). KO-52 and OCI-AML3 cell lines were propagated in alpha-MEM (Sigma Aldrich) supplemented with 20% heat-inactivated fetal bovine serum (HyClone), 2 mM L-glutamine (Sigma Aldrich) and 50 µg/ml gentamycin (Gibco).
In order to assess the anti-proliferative effects, 200 MOLM14 cells, […] or 300 KO-52 cells were seeded in 200 μl media per well in 96-well round bottom, ultra-low attachment plates (Costar, catalogue number 7007). Cell seeding numbers were chosen based on growth curves to ensure linear growth throughout the experiment. Test compounds were added at different concentrations and the DMSO content was normalized to 0.3%. Cells were incubated for 8 days at 37° C. and 5% CO2. Spheroid like growth was measured in real-time by live-cell imaging (IncuCyteZOOM, Essenbio, 4× objective) acquiring images at day 8. Confluence (%) as a measure of spheroid size was determined using an integrated analysis tool.
In order to determine the effect of the test compounds over time, the confluence in each well as a measure of spheroid size, was calculated. Confluence of the highest dose of a reference compound was used as baseline for the LC (Low control) and the confluence of DMSO treated cells was used as 0% cytotoxicity (High Control, HC).
Absolute IC50 values were calculated as percent change in confluence as follows: • LC=Low Control: cells treated with e.g. […] of the cytotoxic agent staurosporin, or e.g. cells treated with a high concentration of an alternative reference compound • HC=High Control: Mean confluence (%) (DMSO treated cells)
GraphPad Prism (version 7.00) was used to calculate the IC50. Dose-response equation was used for the plot of % Effect vs Log 10 compound concentration with a variable slope and fixing the maximum to 100% and the minimum to 0%.

KO-52 cells = assay: Proliferation assay (spheroid assay), KO-52 control cell line; format: cell-based; details: Homo sapiens, 192 h, 8 days; MLL wildtype control cell line; read-out: spheroid assay_KO-52 IC50
Protocol: as §1, §2
In order to assess the anti-proliferative effects, 200 MOLM14 cells, 200° C. […] Spheroid like growth was measured in real-time by live-cell imaging (IncuCyteZOOM, Essenbio, 4× objective) acquiring images at day 8. Confluence (%) as a measure of spheroid size was determined using an integrated analysis tool.
In order to determine the effect of the test compounds over time, the confluence in each well as a measure of spheroid size, was calculated. […]

MOLM-13 tumors = assay: Efficacy (survival) in disseminated MOLM-13 (KMT2A-rearranged) model in NSG mice; format: in vivo; details: NSG mice bearing established MOLM-13 tumors, vs vehicle; Azacitidine 2 mg/kg ip QD × 7; Compound 51 2 mg/kg po QD × 28; n = 10
Protocol: 4) Efficacy of Menin-MLL Inhibitor in Combination with Azacitidine in MOLM-13 (KMT2A-Rearranged) Model in NSG Mice
Compound 51 was formulated in purified pyrogen-free deionized water, pH 4.0 and prepared to reach a total volume of 8 mL/kg. Doses were adjusted by individual body weight each day. Working stocks of Compound 51 were prepared once per week for each study and stored at 25° C.
Female NSG (NOD.Cg-Prkdc^scid Il2rg^tm1Wjl/SzJ) mice were used when they were approximately 6 to 8 weeks of age and weighed approximately 25 g. All animals could acclimate and recover from any shipping-related stress for a minimum of 7 days prior to experimental use. […]
Animals were monitored daily for clinical signs related to either compound toxicity or tumor burden (i.e., hind limb paralysis, lethargy, etc.).
For survival assessment, results were plotted as the percentage survival against days post tumor implant. […] Median survival was determined utilizing Kaplan-Meier survival analysis. The percent increased life span (ILS) was calculated as: ((median survival day of treated group−median survival day of control group)/median survival day of control group)×100. […]
Survival and body weight data were graphically represented utilizing Prism (Version 9). Statistical significance for body weights was evaluated as described above. […]

Row | IC50 (MEIS1 mRNA expression) | IC50 (MOLM14 cells) | Compound | IC50 (KO-52 cells) | % ILS (increased life span) (MOLM-13 tumors)
1 | 89 nM | 39 nM | CC(=O)N1CCC(CN2CCC(Cc3cn(-c4ccc(F)cc4C(=O)N(C)C(C)C)c4cncc(C)c34)C2)CC1 (single isomer, unassigned) [Compound 50] | 2300 nM | 
2 |  |  | Nc1ncn([C@@H]2O[C@H](CO)[C@@H](O)[C@H]2O)c(=O)n1 [Azacitidine, azacitidine, reference compound] |  | *37%

— patent US20260191835A1, “COMBINATIONS COMPRISING A MENIN-MLL INHIBITOR AND AT LEAST ONE OTHER THERAPEUTIC AGENT” (JANSSEN PHARMACEUTICA NV, priority 2022, published 2026)
